Source: patent publication US6153605A, “Arylsecocholadiene derivatives” (priority 1997, dated 2000)
Where two headings read alike, the source gives them in different places.

Columns and labels:
[1] = Oral tolerance (calcemic liability) by body weight in hairless mice; parameters: species or system hairless mice (Moro hr/hr); details: mouse, in vivo, oral gavage in arachis oil, daily for 4 days, read-out: HTDp.o. (highest tolerated oral dose without weight loss)
Description: (§1) Orally administered vitamin D analogues can lead to epidermal thickening (acanthosis) in hairless mice. […] Compounds of formula I were tested for 4 days at different dosages in order to detect compounds which show this epidermal effect at subtoxic and non-toxic doses (dosage leading to slight or no weight loss). […] The calcitriol data were obtained from animals treated for three days.
(§2) Hairless mice (Moro hr/hr) received daily administrations of the test compound in arachis oil by gavage for 4 days, using 2-5 different dosages (3 fold increments; 2 animals per dosage group). The mice were sacrificed at day 5 and skin biopsies were taken, fixed in formalin and treated for histological evaluation. The epidermal thickness was measured at standard magnification using an occular grid. Daily measurements of body weight allows to judge toxicity (calcemic liability) and determine the non-toxic dose level defined as the dose which is tolerated without weight loss.
HTDp.o.: highest tolerated oral dose (μg/kg) without weight loss

normal mouse skin [2] = assay: Activity assay hyperproliferative disorders: epidermal thickening (acanthosis) in hairless mice, oral; type: in vivo, hairless mice (Moro hr/hr); details: for ED50: Mus musculus, read-out: ED50 (dose causing halfmaximal epidermal thickening)
Description: Activity Assay Hyperproliferative Disorders
as §1, §2
ED50 : dose (μg/kg) causing halfmaximal epidermal thickening
TI shift: shift in "therapeutic index", is defined as ratio ED50 /HT
for calcitriol divided by the ratio ED50 /HTP for the test compound

normal mouse skin [3] = details: known antipsoriatics; cited from earlier work
[4] = 96 h, oral gavage in arachis oil, daily for 4 days

Row | Structure (SMILES) | MTD [1] [mg/kg] | ED50 (normal mouse skin [2]; [4]) [mg/kg] | ratio ED50/HTD (normal mouse skin [2]; oral, 4 days) | skin effect (epidermal thickening) on 4 days dosing, in words (normal mouse skin [2]; 4 days) | ED50 (normal mouse skin [2]; 72 h, oral, calcitriol treated for three days) [mg/kg] | ratio ED50/HTD (normal mouse skin [2]; oral, calcitriol treated for three days) | epidermal thickening effect on normal mouse skin, in words (normal mouse skin [3])
1 | C=C1/C(=C\C=C2/CCC[C@]3(C)[C@@H]([C@@H](C)C#Cc4ccccc4C(C)(C)O)CC[C@@H]23)C[C@@H](O)C[C@@H]1O [Example 16, (5Z,7E)-(1S,3R,20R)-23-[2-(1-Hydroxy-1-methyl-ethyl)-phenyl)-24-nor-9,10-seco-chola-5,7,10(19)-trien-22-yne-1,3-diol] | 2 | 10 | 5 | – | – | – | –
2 | C=C1/C(=C\C=C2/CCC[C@]3(C)[C@@H]([C@H](C)CCCC(C)(C)O)CC[C@@H]23)C[C@@H](O)C[C@@H]1O [calcitriol, 1,25-dihydroxycholecalciferol, reference compound] | – | – | – | could not be dosed for 4 days high enough to obtain this skin effect | 0.5 | 500 | show this effect on normal mouse skin
3 | C=C1/C(=C\C=C2/CCC[C@]3(C)[C@@H]([C@@H](C)C#Cc4cccc(C(C)(C)O)c4)CC[C@@H]23)C[C@@H](O)C[C@@H]1O [Example 14, (5Z,7E)-(1S,3R,20R)-23-[3-(1-Hydroxy-1-methyl-ethyl)-phenyl)-24-nor-9,10seco-chola-5,7,10(19)-trien-22-yne-1,3-diol] | 1 | 7 | 7 | – | – | – | –
4 | CC(C#Cc1ccccc1C(C)(C)O)[C@H]1CC[C@H]2/C(=C/C=C3C[C@@H](O)C[C@H](O)C3)CCC[C@]12C (stereo partly drawn) [Example 6, (7E)-(1R,3R)-23-[2-(1-Hydroxy-1-methyl-ethyl)-phenyl]-19,24-dinor-9,10-seco-chola-5,7-dien-22-yne-1,3-diol] | 0.04 | 2.5 | 63 | – | – | – | –
